Patent US7160888B2, “[1,8]naphthyridin-2-ones and related compounds for the treatment of schizophrenia” (Warner Lambert Company LLC, priority 2003, dated 2007)

How the values were obtained:
D2 receptor = D2 receptor (Homo sapiens, UniProt P14416); experiment: [3H]Thymidine uptake assay for D2 intrinsic activity; type: cell-based; conditions: Table 1; test compound 1 μM; 1 μM Quinpirole = 100% intrinsic activity
D2 receptor, sequence (P14416 whole entry): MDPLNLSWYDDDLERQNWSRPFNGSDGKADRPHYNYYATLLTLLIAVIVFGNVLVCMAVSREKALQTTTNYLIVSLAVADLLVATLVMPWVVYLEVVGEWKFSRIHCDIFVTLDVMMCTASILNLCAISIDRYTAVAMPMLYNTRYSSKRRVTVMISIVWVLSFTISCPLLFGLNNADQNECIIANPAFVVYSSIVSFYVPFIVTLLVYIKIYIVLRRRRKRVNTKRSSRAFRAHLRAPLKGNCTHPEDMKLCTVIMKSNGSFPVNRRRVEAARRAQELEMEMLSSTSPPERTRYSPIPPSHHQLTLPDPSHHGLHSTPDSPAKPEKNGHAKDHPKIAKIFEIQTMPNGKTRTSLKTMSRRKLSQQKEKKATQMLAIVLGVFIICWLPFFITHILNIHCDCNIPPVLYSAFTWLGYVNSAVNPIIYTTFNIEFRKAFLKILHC

Row | Compound | Emax at 1 µM (D2 receptor) [%] | melting point [°C]
1 | O=C1NCc2ccc(OCCCCN3CCN(c4cccc(Cl)c4Cl)CC3)nc2N1 [Example F1, 7-{4-[4-(2,3-Dichloro-phenyl)-piperazin-1-yl]-butoxy}-3,4-dihydro-1H-pyrido[2,3-d]pyrimidin-2-one] | 8 | 166 to 167
2 | CC(=O)c1cccc(N2CCN(CCCCOc3ccc4ccc(=O)[nH]c4n3)CC2)c1Cl [Example B6, 7-{4-[4-(3-Acetyl-2-chloro-phenyl)-piperazin-1-yl]-butoxy}-1H-[1,8]naphthyridin-2-one] | 16 | 108 to 110
3 | CCOc1cccc(N2CCN(CCCCOc3ccc4c(n3)NC(=O)CC4)CC2)c1Cl [Example A21, 7-{4-[4-(2-Chloro-3-ethoxy-phenyl)-piperazin-1-yl]-butoxy}-3,4-dihydro-1H-[1,8]naphthyridin-2-one] | – | 110 to 112
4 | O=C1NCc2ccc(OCCCCN3CCN(c4cccc5ccccc45)CC3)nc2N1 [Example F2, 7-[4-(4-Naphthalen-1-yl-piperazin-1-yl)-butoxy]-3,4-dihydro-1H-pyrido[2,3-d]pyrimidin-2-one] | 30 | 136 to 138
5 | Cc1cc(=O)[nH]c2nc(CCCCCN3CCN(c4cccc(Cl)c4Cl)CC3)ccc12 [Example D3, 7-{5-[4-(2,3-Dichloro-phenyl)-piperazin-1-yl]-pentyl}-4-methyl-1H-[1,8]naphthyridin-2-one] | 15 | 195 to 196
6 | CC(=O)c1cccc(N2CCN(CCCCOc3ccc4c(n3)NC(=O)CC4)CC2)c1Cl [Example A32, 7-{4-[4-(3-Acetyl-2-chloro-phenyl)-piperazin-1-yl]-butoxy}-3,4-dihydro-1H-[1,8]naphthyridin-2-one] | 7 | 138 to 139
7 | O=C1CCc2ccc(OCCCCN3CCN(c4cccc5c4CCCC5=O)CC3)nc2N1 [Example A58, 7-{4-[4-(5-Oxo-5,6,7,8-tetrahydro-naphthalen-1-yl)-piperazin-1-yl]-butoxy}-3,4-dihydro-1H-[1,8]naphthyridin-2-one] | 48 | 169 to 170
8 | O=c1ccc2ccc(CCCCCN3CCN(c4cccc(Cl)c4Cl)CC3)nc2[nH]1 [Example C20, 7-{5-[4-(2,3-Dichloro-phenyl)-piperazin-1-yl]-pentyl}-1H-[1,8]naphthyridin-2-one] | – | 176 to 178
9 | Cc1cc(=O)[nH]c2nc(OCCCCN3CCN(c4cccc(Cl)c4Cl)CC3)ccc12 [Example D1, 7-{4-[4-(2,3-Dichloro-phenyl)-piperazin-1-yl]-butoxy}-4-methyl-1H-[1,8]naphthyridin-2-one] | 31 | 181 to 182
10 | Cc1c(C)c2ccc(CCCCCN3CCN(c4cccc(Cl)c4Cl)CC3)nc2[nH]c1=O [Example D8, 7-{5-[4-(2,3-Dichloro-phenyl)-piperazin-1-yl]-pentyl}-3,4-dimethyl-1H-[1,8]naphthyridin-2-one] | 8 | 202 to 203
11 | Cc1c(C)c2ccc(OCCCCN3CCN(c4cccc(Cl)c4Cl)CC3)nc2[nH]c1=O [Example D7, 7-{4-[4-(2,3-Dichloro-phenyl)-piperazin-1-yl]-butoxy}-3,4-dimethyl-1H-[1,8]naphthyridin-2-one] | 15 | 161 to 163
12 | CC(=O)c1c(Cl)cccc1N1CCN(CCCCOc2ccc3c(n2)NC(=O)CC3)CC1 [Example A28, 7-{4-[4-(2-Acetyl-3-chloro-phenyl)-piperazin-1-yl]-butoxy}-3,4-dihydro-1H-[1,8]naphthyridin-2-one] | 2 | 115
13 | O=C1CCCc2c1cccc2N1CCN(CCCCOc2ccc3ccc(=O)[nH]c3n2)CC1 [Example B42, 7-{4-[4-(5-Oxo-5,6,7,8-tetrahydro-naphthalen-1-yl)-piperazin-1-yl]-butoxy}-1H-[1,8]naphthyridin-2-one] | 37 | 158 to 160
14 | Cc1cc2c(nc1OCCCCN1CCN(c3cccc(Cl)c3Cl)CC1)NC(=O)CC2 [Example E1, 7-{4-[4-(2,3-Dichloro-phenyl)-piperazin-1-yl]-butoxy}-6-methyl-3,4-dihydro-1H-[1,8]naphthyridin-2-one] | 32 | 138 to 139
15 | Cc1cc2c(nc1OCCCCN1CCN(c3cccc4ccccc34)CC1)NC(=O)CC2 [Example E2, 6-Methyl-7-[4-(4-naphthalen-1-yl-piperazin-1-yl)-butoxy]-3,4-dihydro-1H-[1,8]naphthyridin-2-one] | 22 | 76 to 78
16 | Cc1cc2ccc(CCCCCN3CCN(c4cccc(Cl)c4Cl)CC3)nc2[nH]c1=O [Example D5, 7-{5-[4-(2,3-Dichloro-phenyl)-piperazin-1-yl]-pentyl}-3-methyl-1H-[1,8]naphthyridin-2-one] | 15 | 157 to 158
17 | Cc1c(F)ccc(N2CCN(CCCCOc3ccc4c(n3)NC(=O)CC4)CC2)c1Cl [Example A15, 7-{4-[4-(2-Chloro-4-fluoro-3-methyl-phenyl)-piperazin-1-yl]-butoxy}-3,4-dihydro-1H-[1,8]naphthyridin-2-one] | 4 | –
18 | COc1ccc2c(N3CCN(CCCCOc4ccc5ccc(=O)[nH]c5n4)CC3)cccc2c1 [Example B61, 7-{4-[4-(6-Methoxy-naphthalen-1-yl)-piperazin-1-yl]-butoxy}-1H-[1,8]naphthyridin-2-one] | 18 | –
